Measurements from patent publication US8834635B2, “Degreasing compositions derived from levulinic acid (a compound obtainable from biomass) and process for degreasing metal surfaces” (Institut Univ. de Ciencia Tecnologia, S.A., priority 2011, dated 2014).
Values after ≈ are worked out from the molar mass of the structure shown.

Tests used:
[1] = Removal efficacy test, solvent immersion followed by rinsing with water; settings: for Removal Efficacy normalized to trichloroethylene: Cereous preservative, water rinsing
From the text: (§1) For our evaluation, a comparative method was used in which removal efficacy (RE) of several alternative solvents are compared with RE value obtained for the industrial standard degreaser, trichloroethylene.
(§2) The removal Efficacy (RE) measures in percentage (%) the degree of removal of organic materials (metal protector and/or solvent) from the surface of metal parts. The removal efficacy test, the grease of ten metallic greased pieces was removed by degreasing process. The standard procedure is carried out by bringing the solvent into contact with ten metal pieces which were previously treated with the metal protector. The metal parts are immersed in the solvent without shaking during 10 minutes in one volume of fresh solvent followed by three consecutive washing cycles by immersion in clean water. The amount of organic material (grease and/or solvent) that was not eliminated by the assayed procedure was determined by direct weight after removal of organic residues from the metallic parts by standard cleaning procedure with trichloroethylene.
Preservative B is a cereous-based preservative.
(§3) The degreasing efficacy of the LAOC solvent family was studied. These experiments remove the grease of ten greased pieces according to the procedure described before. This experiment was carried out for two different greases and the obtained results are described in table 2.

[2] = as above; settings: for Removal Efficacy normalized to trichloroethylene: Solvent-based preservative, water rinsing
From the text: as §1, §2
Preservative A is a solvent-based preservative Aromatic hydrocarbons are often used in preservative formulations.
as §3

[3] = Cytotoxicity, in vitro NRU; format: cell-based; settings: read-out: Cytotoxicity, in vitro NRU, IC50 (mg/mL). Experimental.
Fish acute toxicity = settings: fish, in vivo; read-out: Fish acute toxicity, experimental, LC50
Fish = Fish acute toxicity; settings: in vivo
[4] = Reusability of solvent without prior purification
Method: as §2
The recovery and reusability of solvents is critical in order to have an economically viable process. The reusability of butyl levulinate (LAOC-4) has been studied for both preservatives. The methodology involved the recovery and reuse of the solvent several times without any prior purification.

[5] = Surface degreasing of metal parts followed by solvent evaporation
[6] = classified by many health authorities, R45 risk phrase; cited from earlier work

Structure (SMILES)	Removal Efficacy normalized to trichloroethylene [1] [%]	Removal Efficacy normalized to trichloroethylene [2] [%]	IC50 [3] [mg/mL]	LC50 (Fish acute toxicity) [µg/mL]	Ecotoxicity rating (fish acute toxicity and ready biodegradability) (Fish)	other results
CCCCCCOC(=O)CCC(C)=O [LAOC-6, Hexyl levulinate]	56.0					
CCOC(=O)CCC(C)=O [LAOC-2, Ethyl levulinate]	70.9	53.0				
CCCCCOC(=O)CCC(C)=O [LAOC-5, Pentyl levulinate]	89.3	37.7	16.6 (≈ 89.1 mM)	< 100	Low ecotox.	
CCCOC(=O)CCC(C)=O [LAOC-3, Propyl levulinate]	81.7	79.6				
CC(=O)CCC(=O)OC(C)C [LAOC-3i, iso-propyl levulinate]	87.0					
CCCCOC(=O)CCC(C)=O [LAOC-4, Butyl levulinate]	99.9	79.0	5.7 (≈ 33.1 mM)	< 100	Low ecotox.	Reusability (values normalized to trichloroethylene = 100) ([4]; Cereous preservative, number of cycles 1): 98.0; Reusability (values normalized to trichloroethylene = 100) ([4]; Cereous preservative, number of cycles 2): 93.2; Reusability (values normalized to trichloroethylene = 100) ([4]; Cereous preservative, number of cycles 4): 93.4; Reusability (values normalized to trichloroethylene = 100) ([4]; Cereous preservative, number of cycles 7): 85.9; Reusability (values normalized to trichloroethylene = 100) ([4]; Cereous preservative, number of cycles 10): 84.6; Reusability (values normalized to trichloroethylene = 100) ([4]; Solvent based preservative, number of cycles 1): 74.4; Reusability (values normalized to trichloroethylene = 100) ([4]; Solvent based preservative, number of cycles 2): 78.2; Reusability (values normalized to trichloroethylene = 100) ([4]; Solvent based preservative, number of cycles 4): 62.2; Reusability (values normalized to trichloroethylene = 100) ([4]; Solvent based preservative, number of cycles 7): 69.7; Removal efficacy (%) ([5]; Ultrasound, 41° C., 10 min, evaporation 23 s at 117° C.): 100%
CC(=O)CCC(=O)OCC(C)C [LAOC-4i, iso-butyl levulinate]	96.4	87.8	4.4 (≈ 25.5 mM)	< 100	Low ecotox.	
ClC=C(Cl)Cl [Trichloroethylene, reference compound]	100.0	100.0				RE (%) Removal Efficacy ([2]; Preservative A (solvent-based), immersion 10 minutes, three water washing cycles): 94.2%; removal efficacy (RE) ([2]; depending on the nature of the preservative (both preservatives A and B)): 94-98%; RE (%) Removal Efficacy ([1]; Preservative B (cereous-based), immersion 10 minutes, three water washing cycles): 98.1%; Removal efficacy (%) ([5]; Immersion, 20° C., 3 min, evaporation 3 min at 20° C.): 100%; carcinogen classification [6]: probable carcinogen
CCCCCCCCOC(=O)CCC(C)=O [LAOC-8, Octyl levulinate]	61.0					
